Values joined by “and” are separate entries in the source; they are usually repeats but may differ in a detail not shown here. Identical values can stand only once.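 Interpolation was linear, between the two tested concentrations surrounding the appropriate level; five concentrations were tested over 48 hours in 96-well plates. At the GI50, growth is halved. The concentration for full growth arrest is given as TGI.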
How the values were obtained:
Test in all cases: NCI tumour cell line growth inhibition, 48 h
[1] = test system: COLO 205 colon
[2] = test system: NCI-H460 lung
[3] = test system: OVCAR-4 ovarian
[4] = test system: NCI-H226 lung
[5] = test system: ACHN renal
[6] = test system: TK-10 renal
[7] = test system: SF-268 CNS
[8] = test system: BT-549 breast
[9] = test system: HCT-15 colon
[10] = test system: MCF7 breast

SMILES | TGI [1] | TGI [2] | TGI [3] | TGI [4] | TGI [5] | TGI [6] | TGI [7] | GI50 [1] | GI50 [8] | TGI [8] | GI50 [9] | TGI [9] | GI50 [5] | GI50 [6] | GI50 [2] | GI50 [10] | TGI [10] | GI50 [7] | GI50 [3] | GI50 [4]
CCOP(=O)(CC(=O)C1=C(O)C(CCCCNC(=O)OC(C)(C)C)N(Cc2ccccc2)C1=O)OCC (stereo not drawn) | > 100 µM | > 100 µM | > 100 µM | > 100 µM | > 100 µM | > 100 µM | > 100 µM | – | – | – | – | – | – | – | – | – | – | – | – | –
O=C(COc1ccc(-c2nc3cc(Cl)c(Cl)cc3[nH]2)cc1)N=Nc1c(O)[nH]c2ccccc12 | > 100 µM | – | – | – | > 100 µM | > 58.5 µM | – | 2.29 µM | 12.7 µM | 59 µM | > 100 µM | > 100 µM | 3.71 µM | > 33.1 µM | – | – | – | – | – | –
COc1ccc(-c2nc(-c3nc4ccc(C(F)(F)F)cc4[nH]3)c3ccccn23)cc1 | > 100 µM | > 100 µM | – | – | > 100 µM | > 100 µM | > 100 µM | > 100 µM | > 100 µM | > 100 µM | > 100 µM | > 100 µM | 63.5 µM | > 100 µM | 9.73 µM | 26.3 µM | > 100 µM | > 100 µM | – | –
Clc1ccc(C2=NOC3C4CCC(C4)C23)cc1 (stereo not drawn) | > 100 µM | > 100 µM | > 100 µM | > 100 µM | > 100 µM | > 100 µM | > 100 µM | – | – | – | – | > 100 µM | – | – | – | – | – | – | – | –
Brc1ccc(C2SCc3nc4ccccc4n32)cc1 (stereo not drawn) | 27.3 µM | 27.3 µM | 27.4 µM | 34.1 µM | 40.2 µM | 29.1 µM | 32.9 µM | – | – | – | – | 24.3 µM | – | – | – | – | – | – | – | –
C#CC(=O)OCC#CCOC(=O)C#C | 32.4 µM | > 100 µM | – | 40.3 µM | 33 µM | 37.9 µM | > 100 µM | – | – | 36.6 µM | – | 36.5 µM | – | – | – | – | 44.2 µM | – | – | –
C[n+]1c(/C=C/c2ccc(/C=N/NC(=O)c3ccc(C(=O)N/N=C/c4ccc(/C=C/c5cn6ccccc6[n+]5C)cc4)cc3)cc2)cn2ccccc21 | > 100 µM | > 100 µM | – | – | > 100 µM | > 100 µM | > 100 µM | – | – | > 100 µM | – | > 100 µM | – | – | – | – | > 100 µM | – | – | –
O=S(=O)(NCCO)c1cc[c]([Sb](=[O])([OH])[OH])cc1 | – | > 100 µM | > 100 µM | > 100 µM | > 100 µM | > 100 µM | > 100 µM | – | > 100 µM | > 100 µM | > 100 µM | > 100 µM | > 100 µM | > 100 µM | > 100 µM | – | – | > 100 µM | > 100 µM | > 100 µM
CC(C)(C)N=CN(C=C(c1ccccc1)c1ccccc1)C1CCCCC1 | > 100 µM | > 100 µM | > 100 µM | – | > 100 µM | > 100 µM | > 100 µM | – | – | – | – | > 100 µM | – | – | – | – | – | – | – | –
CC(=O)c1cccc(NC(=O)c2ccc(NC3=C(Cl)C(=O)N(Cc4ccccc4)C3=O)cc2)c1 | > 100 µM | > 100 µM | 92.2 µM | 28.1 µM | 49.1 µM | – | 98.9 µM | 29.2 µM | 8.8 µM | 27.9 µM | 16.8 µM | 44.5 µM | 22.7 µM | – | 22.1 µM | 9.34 µM | > 100 µM | 22.2 µM | 24.9 µM | 9.9 µM
Cc1cnc(SCCN2CCN(C)CC2)nc1-c1cc2ccccc2s1 | 29.2 µM | 14.6 µM | 34.1 µM | 25.3 µM | – | 33.1 µM | – | – | – | – | – | 24.7 µM | – | – | – | – | – | – | – | –
Cc1cc2c(cc1C)[n+](Cc1ccc3ccccc3n1)cn2Cc1ccc2ccccc2n1 | 1.58 µM | 2.21 µM | 4.09 µM | 4.01 µM | 10.6 µM | 2.74 µM | 3.02 µM | 0.387 µM | 1.32 µM | 3.2 µM | 3.04 µM | 11.4 µM | 3.06 µM | 1.38 µM | 0.63 µM | – | – | 1.27 µM | 1.24 µM | 1.59 µM
O=C1CCC2(c3ccccc3)Nc3ccc(Cl)cc3N12 (stereo not drawn) | > 100 µM | > 100 µM | > 100 µM | > 100 µM | > 100 µM | > 100 µM | > 100 µM | – | – | – | – | > 100 µM | – | – | – | – | – | – | – | –
Oc1c2c(c(O)c3ccccc13)C1(N=N2)c2ccccc2Oc2ccccc21 | 28 µM | 46.3 µM | – | – | 16 µM | 23 µM | 25.5 µM | – | – | 23.5 µM | – | 9.15 µM | – | – | – | – | 13.6 µM | – | – | –
CCCCCCCCCCCCCCNCC(OCC)OCC | 28 µM | 34.3 µM | 28.6 µM | 37.6 µM | 27 µM | 32.7 µM | 36.7 µM | – | – | – | – | 23.2 µM | – | – | – | – | – | – | – | –
C/C=C1\CCC2c3[nH]c4ccccc4c3CCN2C1 (stereo not drawn) | – | > 100 µM | > 100 µM | > 100 µM | > 100 µM | > 100 µM | > 100 µM | – | – | – | – | – | – | – | – | – | – | – | – | –
CCCCN1CCN(c2ccc3nc(-c4ccc5nc(-c6ccc(OCC)c(OCC)c6)[nH]c5c4)[nH]c3c2)CC1 | 1.52 µM | 1.86 µM | 3.21 µM | 3.95 µM | 2.12 µM | 5.17 µM | 22 µM | 0.231 µM | – | – | 1.56 µM | 3.32 µM | 0.922 µM | 1.66 µM | 0.533 µM | – | – | 2.66 µM | 1.48 µM | 1.29 µM
CCCC#CCOC(=O)c1cc([N+](=O)[O-])cc([N+](=O)[O-])c1 | > 100 µM | > 100 µM | – | – | > 100 µM | > 100 µM | > 100 µM | – | – | > 100 µM | – | > 100 µM | – | – | – | – | > 100 µM | – | – | –
O=C(NC(=O)c1cc2cc(Br)cc(Br)c2oc1=O)Oc1ccccc1 | > 100 µM | > 100 µM | > 100 µM | > 100 µM | 72 µM | > 100 µM | > 100 µM | – | – | – | – | > 100 µM | – | – | – | – | – | – | – | –
O=C1N[C@H]2[C@H](O)[C@H](O)[C@@H](O)[C@H](O)[C@@H]2c2cc3c(c(O)c21)OCO3 | – | 0.652 µM and 0.448 µM | – | 1.59 µM and 0.195 µM | – | 3.55 µM and 1.69 µM | – | 12.8 µM | 0.0187 µM | 0.0684 µM and 0.142 µM | 0.462 µM | – | – | 0.0561 µM | 0.234 µM and 0.084 µM | 0.0208 µM | – | 0.269 µM and 1.36 µM | 0.189 µM and 0.373 µM | 0.273 µM and 0.365 µM
CC/C(CC(=O)CCC(=O)Nc1ccc(C)c(C)c1)=N\NC(=O)C(N)=O | > 100 µM | – | > 100 µM | > 100 µM | > 100 µM | > 100 µM | > 100 µM | – | – | – | – | > 100 µM | – | – | – | – | – | – | – | –
